In patent publication US10654828B2 (NOVARTIS AG, priority 2017, dated 2020):

How the values were obtained:
AKT = AKT activation: Phospho-AKT (Ser473) antibody staining in reporter cells; type: cell-based; conditions: Homo sapiens, U2OS, 0.5 h, U2OS GFP-FoxO3a H212R cells, serum starved overnight, compound 30 minutes; total cellular intensity of Phospho-AKT (Ser473) staining; DMSO control 0%
Method: (§1) Phosphorylation of AKT on S473 and FoxO3a nuclear to cytoplasmic translocation were used as readouts of PI3K/Akt/mTOR pathway activation downstream of growth factor signaling.
(§2) Reporter cell line. U2OS GFP-FoxO3a H212R reporter cell line was established by transducing U2OS cells with the retroviral plasmid pLEGFP-C1 containing FoxO3a H212R transgene and selecting for G418 resistant clones.
(§3) Reporter assay. U2OS GFP-FoxO3a H212R cells were plated in 384-well plates at 4000 cells per well in 30 microliters of McCoy's 5 A medium containing 10% FBS. On day 1 the cells were washed with serum free medium and serum starved overnight. On day 2 the cells were treated with different doses of the compounds for 30 minutes, fixed with 4% Paraformaldehyde for 1 hour and stained with Phospho-AKT (Ser473) antibody (Cell Signaling Technology, catalog #4060) overnight at 4 degrees Celsius. After nuclei staining with Hoechst 33342 (Life Technologies, catalog # H3570) the plates were imaged with InCell 2000 (GE Healthcare Bio-Sciences). FoxO3a inhibition activity is calculated as the ratio of nuclear to cytosolic GFP intensity in percent. AKT activation is measured as the total cellular intensity of Phospho-AKT antibody staining in percent. DMSO control is set as 0% activity.

FoxO3a = FoxO3a inhibition: GFP-FoxO3a nuclear to cytoplasmic translocation reporter assay; type: cell-based; conditions: Homo sapiens, U2OS, 0.5 h, U2OS GFP-FoxO3a H212R cells, serum starved overnight, compound 30 minutes; ratio of nuclear to cytosolic GFP intensity; DMSO control 0%; read-out: FoxO AC50
Method: as §1, §2, §3

| SMILES | AC50 (AKT) [nM] | AC50 (FoxO3a) [nM] |
| --- | --- | --- |
| Cc1cc(C(N)=O)nn1-c1ccc2c(ccn2Cc2ccc(-c3ccc(S(C)(=O)=O)cc3)cc2)c1 [Example 1-6, 5-methyl-1-(1-((4′-(methylsulfonyl)-[1,1′-biphenyl]-4-yl)methyl)-1H-indol-5-yl)-1H-pyrazole-3-carboxamide] | 250 | 101 |
| Cc1cc(C(N)=O)nn1-c1ccc2c(ccn2Cc2ccc(-c3ccc4nccn4c3)cc2)c1 [Example 1-7, 1-(1-(4-(imidazo[1,2-a]pyridin-6-yl)benzyl)-1H-indol-5-yl)-5-methyl-1H-pyrazole-3-carboxamide] | 680 | 194 |
| Cc1cc(C(N)=O)nn1-c1ccc2c(ccn2Cc2ccc(C3=CCCN(C)C3)cc2)c1 [Example 1-8, 5-methyl-1-(1-(4-(1-methyl-1,2,5,6-tetrahydropyridin-3-yl)benzyl)-1H-indol-5-yl)-1H-pyrazole-3-carboxamide] | > 10000 | 517 |
| Cc1cc(C(N)=O)nn1-c1ccc2c(ccn2Cc2ccc(-c3cnc4c(c3)OCCN4C)cc2)c1 [Example 1-9, 5-methyl-1-(1-(4-(4-methyl-3,4-dihydro-2H-pyrido[3,2-b][1,4]oxazin-7-yl)benzyl)-1H-indol-5-yl)-1H-pyrazole-3-carboxamide] | 318 | 109 |
| Cc1cc(C(N)=O)nn1-c1ccc2c(ccn2Cc2ccc(-c3ccc4cn(C)nc4c3)cc2)c1 [Example 1-10, 5-methyl-1-(1-(4-(2-methyl-2H-indazol-6-yl)benzyl)-1H-indol-5-yl)-1H-pyrazole-3-carboxamide] | 234 | 72 |
| Cc1cc(C(N)=O)nn1-c1ccc2c(ccn2Cc2ccc(-c3ccc(S(=O)(=O)N4CCN(C)CC4)cc3)cc2)c1 [Example 1-11, 5-methyl-1-(1-((4′-((4-methylpiperazin-1-yl)sulfonyl)-[1,1′-biphenyl]-4-yl)methyl)-1H-indol-5-yl)-1H-pyrazole-3-carboxamide] | 388 | 69 |
| Cc1cc(C(N)=O)nn1-c1ccc2c(ccn2Cc2ccc(-c3cccc(C(=O)N4CCN(C)CC4)c3)cc2)c1 [Example 1-12, 5-methyl-1-(1-((3′-(4-methylpiperazine-1-carbonyl)-[1,1′-biphenyl]-4-yl)methyl)-1H-indol-5-yl)-1H-pyrazole-3-carboxamide] | 346 | 124 |
| Cc1cc(C(N)=O)nn1-c1ccc2c(ccn2Cc2ccc(-c3ccc(S(=O)(=O)N(C)C)cc3)cc2)c1 [Example 1-13, 1-(1-((4′-(N,N-dimethylsulfamoyl)-[1,1′-biphenyl]-4-yl)methyl)-1H-indol-5-yl)-5-methyl-1H-pyrazole-3-carboxamide] | 230 | 84 |
| Cc1cc(C(N)=O)nn1-c1ccc2c(ccn2Cc2ccc(-c3ccc4cn[nH]c4c3)cc2)c1 [Example 1-14, 1-(1-(4-(1H-indazol-6-yl)benzyl)-1H-indol-5-yl)-5-methyl-1H-pyrazole-3-carboxamide] | 1050 | 284 |
| Cc1cc(C(N)=O)nn1-c1ccc2c(ccn2Cc2ccc(-c3ccc(O)c(F)c3)cc2)c1 [Example 1-15, 1-(1-((3′-fluoro-4′-hydroxy-[1,1′-biphenyl]-4-yl)methyl)-1H-indol-5-yl)-5-methyl-1H-pyrazole-3-carboxamide] | 172 | 56 |
| Cc1cc(C(N)=O)nn1-c1ccc2c(ccn2Cc2ccc(-c3cnc4[nH]ccc4c3)cc2)c1 [Example 1-16, 1-(1-(4-(1H-pyrrolo[2,3-b]pyridin-5-yl)benzyl)-1H-indol-5-yl)-5-methyl-1H-pyrazole-3-carboxamide] | 451 | 147 |
| Cc1cc(C(N)=O)nn1-c1ccc2c(ccn2Cc2ccc(-c3ccc4[nH]ncc4c3)cc2)c1 [Example 1-17, 1-(1-(4-(1H-indazol-5-yl)benzyl)-1H-indol-5-yl)-5-methyl-1H-pyrazole-3-carboxamide] | 199 | 88 |
| Cc1cc(C(N)=O)nn1-c1ccc2c(ccn2Cc2ccc(-c3ccc4cnccc4c3)cc2)c1 [Example 1-18, 1-(1-(4-(isoquinolin-6-yl)benzyl)-1H-indol-5-yl)-5-methyl-1H-pyrazole-3-carboxamide] | 352 | 95 |
| Cc1cc(C(N)=O)nn1-c1ccc2c(ccn2Cc2ccc(-c3cnn(C)c3)cc2)c1 [Example 1-19, 5-methyl-1-(1-(4-(1-methyl-1H-pyrazol-4-yl)benzyl)-1H-indol-5-yl)-1H-pyrazole-3-carboxamide] | 500 | 140 |
| Cc1cc(C(N)=O)nn1-c1ccc2c(ccn2Cc2ccc(-c3cccc(S(N)(=O)=O)c3)cc2)c1 [Example 1-20, 5-methyl-1-(1-((3′-sulfamoyl-[1,1′-biphenyl]-4-yl)methyl)-1H-indol-5-yl)-1H-pyrazole-3-carboxamide] | > 10000 | 126 |
| Cc1cc(C(N)=O)nn1-c1ccc2c(ccn2Cc2ccc(-c3ccc4cc[nH]c4c3)cc2)c1 [Example 1-21, 1-(1-(4-(1H-indol-6-yl)benzyl)-1H-indol-5-yl)-5-methyl-1H-pyrazole-3-carboxamide] | 2970 | 420 |
| Cc1cc(C(N)=O)nn1-c1ccc2c(ccn2Cc2ccc(-c3ccc4cnn(C)c4c3)cc2)c1 [Example 1-22, 5-methyl-1-(1-(4-(1-methyl-1H-indazol-6-yl)benzyl)-1H-indol-5-yl)-1H-pyrazole-3-carboxamide] | 507 | 167 |
| Cc1cc(C(N)=O)nn1-c1ccc2c(ccn2Cc2ccc(-c3ccc(N(C)C)nc3)cc2)c1 [Example 1-23, 1-(1-(4-(6-(dimethylamino)pyridin-3-yl)benzyl)-1H-indol-5-yl)-5-methyl-1H-pyrazole-3-carboxamide] | 293 | 93 |
| COc1cc(-c2ccc(Cn3ccc4cc(-n5nc(C(N)=O)cc5C)ccc43)cc2)ccn1 [Example 1-24, 1-(1-(4-(2-methoxypyridin-4-yl)benzyl)-1H-indol-5-yl)-5-methyl-1H-pyrazole-3-carboxamide] | 349 | 123 |
| Cc1cc(C(N)=O)nn1-c1ccc2c(ccn2Cc2ccc(-c3ccc4c(c3)CCNC4=O)cc2)c1 [Example 1-25, 5-methyl-1-(1-(4-(1-oxo-1,2,3,4-tetrahydroisoquinolin-6-yl)benzyl)-1H-indol-5-yl)-1H-pyrazole-3-carboxamide] | 197 | 56 |
| Cc1cc(C(N)=O)nn1-c1ccc2c(ccn2Cc2ccc(-c3ccc(N)cc3)cc2)c1 [Example 1-26, 1-(1-((4′-amino-[1,1′-biphenyl]-4-yl)methyl)-1H-indol-5-yl)-5-methyl-1H-pyrazole-3-carboxamide] | > 10000 | 129 |
| Cc1cc(C(N)=O)nn1-c1ccc2c(ccn2Cc2ccc(-c3ccc(F)cc3)cc2)c1 [Example 1-27, 1-(1-((4′-fluoro-[1,1′-biphenyl]-4-yl)methyl)-1H-indol-5-yl)-5-methyl-1H-pyrazole-3-carboxamide] | > 10000 | 229 |
| COc1ncc(-c2ccc(Cn3ccc4cc(-n5nc(C(N)=O)cc5C)ccc43)cc2)cn1 [Example 1-28, 1-(1-(4-(2-methoxypyrimidin-5-yl)benzyl)-1H-indol-5-yl)-5-methyl-1H-pyrazole-3-carboxamide] | 1170 | 223 |
